{"source": "PubChem BioAssay AID1259407", "about": "(Chemical Carcinogenesis Research Information System (CCRIS), 2018)", "tested_on": "CCRIS mutagenicity, Ames/micronucleus/aberration tests", "test": "CCRIS mutagenicity studies", "key": {"[1]": {"settings": "Test System: AMES SALMONELLA TYPHIMURIUM, Strain/Indicator: TA98, Metabolic Activation: HAMSTER, LIVER, S-9, AROCLOR 1254 (10%), Method: PREINCUBATION"}, "[2]": {"settings": "Test System: AMES SALMONELLA TYPHIMURIUM, Strain/Indicator: TA98, Metabolic Activation: NONE, Method: PREINCUBATION"}, "[3]": {"settings": "Test System: AMES SALMONELLA TYPHIMURIUM, Strain/Indicator: TA98, Metabolic Activation: RAT, LIVER, S-9, AROCLOR 1254 (10%), Method: PREINCUBATION"}, "[4]": {"settings": "Test System: AMES SALMONELLA TYPHIMURIUM, Strain/Indicator: TA100, Metabolic Activation: HAMSTER, LIVER, S-9, AROCLOR 1254 (10%), Method: PREINCUBATION"}, "[5]": {"settings": "Test System: AMES SALMONELLA TYPHIMURIUM, Strain/Indicator: TA100, Metabolic Activation: NONE, Method: PREINCUBATION"}, "[6]": {"settings": "Test System: AMES SALMONELLA TYPHIMURIUM, Strain/Indicator: TA100, Metabolic Activation: RAT, LIVER, S-9, AROCLOR 1254 (10%), Method: PREINCUBATION"}, "[7]": {"settings": "Test System: AMES SALMONELLA TYPHIMURIUM, Strain/Indicator: TA1535, Metabolic Activation: HAMSTER, LIVER, S-9, AROCLOR 1254 (10%), Method: PREINCUBATION"}, "[8]": {"settings": "Test System: AMES SALMONELLA TYPHIMURIUM, Strain/Indicator: TA1535, Metabolic Activation: NONE, Method: PREINCUBATION"}, "[9]": {"settings": "Test System: AMES SALMONELLA TYPHIMURIUM, Strain/Indicator: TA1535, Metabolic Activation: RAT, LIVER, S-9, AROCLOR 1254 (10%), Method: PREINCUBATION"}}, "note": "The source made the active and inactive calls. The rule behind the calls is not given here."}
{"smiles": "NC(=O)N/N=C/c1ccc([N+](=O)[O-])o1", "values": [{"measurement": "mutagenic call", "setting": "End Point: IN VITRO CHROMOSOMAL ABERRATIONS, Test System: CHO CELLS, Metabolic Activation: NONE", "value": "active; positive"}, {"measurement": "mutagenic call", "setting": "End Point: IN VITRO CHROMOSOMAL ABERRATIONS, Test System: CHO CELLS, Metabolic Activation: RAT, LIVER, S-9, AROCLOR 1254", "value": "active; positive; precipitation occurred at 500 ug/ml"}, {"measurement": "mutagenic call", "setting": "Test System: AMES SALMONELLA TYPHIMURIUM, Strain/Indicator: TA97, Metabolic Activation: NONE, Method: FLUCTUATION TEST", "value": "active; positive"}, {"measurement": "mutagenic call", "setting": "Test System: AMES SALMONELLA TYPHIMURIUM, Strain/Indicator: TA98(1,8-DNP6), Metabolic Activation: NONE, Method: STANDARD PLATE", "value": "active; positive"}, {"measurement": "mutagenic call", "setting": "Test System: AMES SALMONELLA TYPHIMURIUM, Strain/Indicator: TA98(1,8-DNP6), Metabolic Activation: RAT, LIVER, S-9, 3-METHYLCHOLANTHRENE, Method: STANDARD PLATE", "value": "active; positive"}, {"measurement": "mutagenic call", "setting": "Test System: AMES SALMONELLA TYPHIMURIUM, Strain/Indicator: TA98(NR), Metabolic Activation: NONE, Method: STANDARD PLATE", "value": "active; positive"}, {"measurement": "mutagenic call", "setting": "Test System: AMES SALMONELLA TYPHIMURIUM, Strain/Indicator: TA98(NR), Metabolic Activation: RAT, LIVER, S-9, 3-METHYLCHOLANTHRENE, Method: STANDARD PLATE", "value": "active; positive"}, {"measurement": "mutagenic call", "setting": "[1]", "value": "active; positive"}, {"measurement": "mutagenic call", "setting": "Test System: AMES SALMONELLA TYPHIMURIUM, Strain/Indicator: TA98, Metabolic Activation: HAMSTER, LIVER, S-9, AROCLOR 1254, Method: PREINCUBATION", "value": "active; positive"}, {"measurement": "mutagenic call", "setting": "[2]", "value": "active; positive"}, {"measurement": "mutagenic call", "setting": "Test System: AMES SALMONELLA TYPHIMURIUM, Strain/Indicator: TA98, Metabolic Activation: NONE, Method: STANDARD PLATE", "value": "active; positive"}, {"measurement": "mutagenic call", "setting": "Test System: AMES SALMONELLA TYPHIMURIUM, Strain/Indicator: TA98, Metabolic Activation: RAT LIVER S-9, AROCLOR 1254, Method: STANDARD PLATE", "value": "active; positive"}, {"measurement": "mutagenic call", "setting": "Test System: AMES SALMONELLA TYPHIMURIUM, Strain/Indicator: TA98, Metabolic Activation: RAT, LIVER, S-9, 3-METHYLCHOLANTHRENE, Method: STANDARD PLATE", "value": "active; positive"}, {"measurement": "mutagenic call", "setting": "[3]", "value": "active; positive"}, {"measurement": "mutagenic call", "setting": "Test System: AMES SALMONELLA TYPHIMURIUM, Strain/Indicator: TA98, Metabolic Activation: RAT, LIVER, S-9, AROCLOR 1254, Method: PREINCUBATION", "value": "active; positive"}, {"measurement": "mutagenic call", "setting": "Test System: AMES SALMONELLA TYPHIMURIUM, Strain/Indicator: TA98, Metabolic Activation: RAT, LIVER, S-9, KC500 OR PHENOBARBITAL, Method: LIQUID SUSPENSION", "value": "active; positive"}, {"measurement": "mutagenic call", "setting": "[4]", "value": "active; positive"}, {"measurement": "mutagenic call", "setting": "Test System: AMES SALMONELLA TYPHIMURIUM, Strain/Indicator: TA100, Metabolic Activation: HAMSTER, LIVER, S-9, AROCLOR 1254, Method: PREINCUBATION", "value": "active; positive"}, {"measurement": "mutagenic call", "setting": "[5]", "value": "active; positive"}, {"measurement": "mutagenic call", "setting": "[6]", "value": "active; positive"}, {"measurement": "mutagenic call", "setting": "Test System: AMES SALMONELLA TYPHIMURIUM, Strain/Indicator: TA100, Metabolic Activation: RAT, LIVER, S-9, AROCLOR 1254, Method: PREINCUBATION", "value": "active; positive"}, {"measurement": "mutagenic call", "setting": "Test System: AMES SALMONELLA TYPHIMURIUM, Strain/Indicator: TA100, Metabolic Activation: RAT, LIVER, S-9, KC500 OR PHENOBARBITAL, Method: LIQUID SUSPENSION", "value": "active; positive"}, {"measurement": "mutagenic call", "setting": "Test System: AMES SALMONELLA TYPHIMURIUM, Strain/Indicator: TA102, Metabolic Activation: NONE, Method: STANDARD PLATE", "value": "active; positive"}, {"measurement": "mutagenic call", "setting": "Test System: AMES SALMONELLA TYPHIMURIUM, Strain/Indicator: TA102, Metabolic Activation: RAT LIVER S-9, AROCLOR 1254, Method: STANDARD PLATE", "value": "active; positive"}, {"measurement": "mutagenic call", "setting": "[7]", "value": "active; positive"}, {"measurement": "mutagenic call", "setting": "Test System: AMES SALMONELLA TYPHIMURIUM, Strain/Indicator: TA1535, Metabolic Activation: HAMSTER, LIVER, S-9, AROCLOR 1254, Method: PREINCUBATION", "value": "active; positive"}, {"measurement": "mutagenic call", "setting": "[8]", "value": "inactive; negative"}, {"measurement": "mutagenic call", "setting": "[9]", "value": "active; positive"}, {"measurement": "mutagenic call", "setting": "Test System: AMES SALMONELLA TYPHIMURIUM, Strain/Indicator: TA1535, Metabolic Activation: RAT, LIVER, S-9, AROCLOR 1254, Method: PREINCUBATION", "value": "active; positive"}, {"measurement": "mutagenic call", "setting": "Test System: AMES SALMONELLA TYPHIMURIUM, Strain/Indicator: TA1537, Metabolic Activation: RAT, LIVER, S-9, AROCLOR 1254, Method: PREINCUBATION", "value": "inactive; negative"}, {"measurement": "mutagenic call", "setting": "Test System: E. COLI, Strain/Indicator: EE97, Metabolic Activation: NONE, Method: FLUCTUATION TEST", "value": "active; positive"}, {"measurement": "mutagenic call", "setting": "Test System: E. COLI, Strain/Indicator: WP2, Metabolic Activation: NONE, Method: FLUCTUATION TEST", "value": "active; positive"}, {"measurement": "mutagenic call", "setting": "Test System: E. COLI, Strain/Indicator: WP2, Metabolic Activation: NONE, Method: SPOT", "value": "active; positive"}, {"measurement": "mutagenic call", "setting": "Test System: E. COLI, Strain/Indicator: WP2, Metabolic Activation: NONE, Method: STANDARD PLATE", "value": "active; positive"}, {"measurement": "mutagenic call", "setting": "Test System: E. COLI, Strain/Indicator: WP2 UVRA, Metabolic Activation: NONE, Method: FLUCTUATION", "value": "active; positive"}, {"measurement": "mutagenic call", "setting": "Test System: E. COLI, Strain/Indicator: WP2 UVRA, Metabolic Activation: NONE, Method: SPOT", "value": "active; positive"}, {"measurement": "mutagenic call", "setting": "Test System: E. COLI, Strain/Indicator: WP2 UVRA, Metabolic Activation: NONE, Method: STANDARD PLATE", "value": "active; positive"}, {"measurement": "mutagenic call", "setting": "Test System: MOUSE LYMPHOMA, Strain/Indicator: L5178Y (TK+/TK-), Metabolic Activation: NONE, Method: SUSPENSION/PLATE", "value": "active; positive"}]}
{"smiles": "Nc1ccc(Cc2ccc(N)c(Cc3ccc(N)cc3)c2)cc1", "values": [{"measurement": "mutagenic call", "setting": "Test System: AMES SALMONELLA TYPHIMURIUM, Strain/Indicator: TA97, Metabolic Activation: HAMSTER, LIVER, S-9, AROCLOR 1254 (10%), Method: PREINCUBATION", "value": "active; positive"}, {"measurement": "mutagenic call", "setting": "Test System: AMES SALMONELLA TYPHIMURIUM, Strain/Indicator: TA97, Metabolic Activation: NONE, Method: PREINCUBATION", "value": "inactive; negative"}, {"measurement": "mutagenic call", "setting": "Test System: AMES SALMONELLA TYPHIMURIUM, Strain/Indicator: TA97, Metabolic Activation: RAT, LIVER, S-9, AROCLOR 1254 (10%), Method: PREINCUBATION", "value": "active; positive"}, {"measurement": "mutagenic call", "setting": "[1]", "value": "active; positive"}, {"measurement": "mutagenic call", "setting": "[2]", "value": "inactive; negative"}, {"measurement": "mutagenic call", "setting": "[3]", "value": "active; positive"}, {"measurement": "mutagenic call", "setting": "[4]", "value": "active; positive"}, {"measurement": "mutagenic call", "setting": "[5]", "value": "inactive; negative"}, {"measurement": "mutagenic call", "setting": "[6]", "value": "active; positive"}, {"measurement": "mutagenic call", "setting": "[7]", "value": "inactive; negative"}, {"measurement": "mutagenic call", "setting": "[8]", "value": "inactive; negative"}, {"measurement": "mutagenic call", "setting": "[9]", "value": "inactive; negative"}, {"measurement": "mutagenic call", "setting": "Test System: AMES SALMONELLA TYPHIMURIUM, Strain/Indicator: TA1537, Metabolic Activation: HAMSTER, LIVER, S-9, AROCLOR 1254 (10%), Method: PREINCUBATION", "value": "active; positive"}, {"measurement": "mutagenic call", "setting": "Test System: AMES SALMONELLA TYPHIMURIUM, Strain/Indicator: TA1537, Metabolic Activation: RAT, LIVER, S-9, AROCLOR 1254 (10%), Method: PREINCUBATION", "value": "active; positive"}]}
